The text below walks through data of ChEMBL document CHEMBL3045956, “Bioisosteric synthesis of nitrogen containing derivatives of salicyl alcohol, their in vivo pharmacological studies with molecular modeling” (2013).

Experiment [1] deals with Mus musculus. The experiment in a line: Antipyretic activity in Balb/c albino Mus musculus (mouse) assessed as decrease in Brewer's yeast-induced rectal temperature at 50 to 150 mg/kg, ip measured up to 1.5 hr relative to control. It is filed as functional, organism-based.
Experiment [2] has as its system Mus musculus. Description: Antinociceptive activity in Balb/c albino Mus musculus (mouse) assessed as latency time on hot plate at 15 to 45 mg/kg up to 60 min by hot-plate method relative to control. Format: functional, organism-based. (In hot-plate and tail-flick tests a longer latency is read as antinociception.)
Experiment [3] deals with Mus musculus. The experiment in a line: Analgesic activity in Balb/c albino Mus musculus (mouse) assessed as protection against acetic acid-induced writhing at 15 to 45 mg/kg measured up to 20 min relative to control. Format: functional. The following applies: dose mg/kg 15-45. (In general: Writhing tests count abdominal constrictions after an irritant is injected.)
Experiment [4] deals with Mus musculus. Description: Anti-inflammatory activity in Balb/c albino Mus musculus (mouse) assessed as inhibition of carrageenan-induced paw edema at 50 to 150 mg/kg at 1 hr relative to control. It is filed as functional, organism-based. For orientation: The carrageenan paw model is a standard test of acute inflammation.
Experiment [5] has as its system Mus musculus. Description: Antipyretic activity in Balb/c albino Mus musculus (mouse) assessed as Brewer's yeast-induced rectal temperature at 50 to 150 mg/kg, ip measured after 3 hr (reference value: 38.7 degC). Format: functional. The following applies: dose mg/kg 50-150; route intraperitoneal.
In experiment [6] the test system is Mus musculus. Description: Anti-inflammatory activity in Balb/c albino Mus musculus (mouse) assessed as inhibition of carrageenan-induced paw edema at 50 to 150 mg/kg at 5 hr relative to control. It is filed as functional, organism-based.
Experiment [7] concerns Mus musculus. Description: Anti-inflammatory activity in Balb/c albino Mus musculus (mouse) assessed as inhibition of carrageenan-induced paw edema at 50 to 150 mg/kg up to 5 hr relative to control. Format: functional, organism-based.

Active and inactive are the calls of the source. No cut-off for these calls is given here.

Consider `Cl.Oc1ccccc1CN1CCCCC1`, for which the inhibition entry with Mus musculus [1], in the experiment with Mus musculus [4] and in the experiment with Mus musculus [6] was “Active” in each case. Moreover, in the experiment with Mus musculus [2], the outcome was inactive. Moreover, the Activity in the experiment with Mus musculus [3] was determined as 67.62%. Moreover, the T in the experiment on Mus musculus [5] turned out to be 37.7 °C.
`CC(=O)Oc1ccccc1C(=O)O` [ASPIRIN]: the Activity in the experiment on Mus musculus [3] was determined as 78.38%.
In the case of `Cl.NC(=O)C1CCN(Cc2ccccc2O)CC1`, the inhibition result with Mus musculus [7], with Mus musculus [1], with Mus musculus [4] and with Mus musculus [6] was “Active” in each case. Moreover, the outcome in the experiment with Mus musculus [2] was inactive. Moreover, in the experiment on Mus musculus [3], the Activity is on record as 67.34%. The T in the experiment with Mus musculus [5] worked out at 37.2 °C.
